Results: patent US20180362543A1, “HIV REPLICATION INHIBITOR” (Shionogi & Co., Ltd., priority 2013, published 2018)

Tested on: HIV (HTLV-III B strain)
Assay: HIV replication inhibition assay (MTT, MT-4 cells)
Type: cell-based
Protocol: HIV (HTLV-III B strain) persistent infected human T cell strain Molt-4 clone 8 was cultured in 10% Fetal Bovine Serum-containing RPMI-1640 medium and the supernatant was filtrated, then the virus titer was measured and the solution was stored at −80° C. Each anti-human immunodeficiency virus active substance was diluted with the above cultured medium to the designated concentration, which was dispensed into 96 well micro plate by 50 μL. Next, a MT-4 cell suspended liquid was dispensed by 100 μL (2.5×10^4 cells), then the above HIV-containing supernatant diluted with the above cultured medium was added thereto by 50 μL (60 pfu (plaque forming unit)).
The obtained mixture was cultured at 37° C. in CO2 incubator for four days, then 3-(4,5-dimehylthiazole-2-yl)-2,5-diphenyltetrazolynium bromide (MTT) 5 mg/mL in PBS was added to each well by 30 μL, followed by 1 hr-cultivation. In this step, as formazan was precipitated by reduction of MTT in living cells, the cell supernatant was removed from all well by 150 μL, then a 150 μL of solution (10% Triton X-100 and […]) was added thereto, followed by shaking with a plate mixer, to elute formazan. The formazan was measured with a microreader at OD: 560 nm and 690 nm (wavelength) and the result was compared with the reference. EC50 means the compound concentration at which cell cytotoxicity by virus is inhibited 50%.

[1] = Human immunodeficiency virus 1, MT4, 96 h, Table A-5, four days
[2] = Human immunodeficiency virus 1, MT4, 96 h, 4 days culture, concentration at which cell cytotoxicity by virus is inhibited 50%
[3] = 4 days culture, concentration at which cell cytotoxicity by virus is inhibited 50%

Row | Structure (SMILES) | EC50 [2] | other results
1 | Cc1c(-c2c(C)c3c(c(C)c2[C@H](OC(C)(C)C)C(=O)O)N(S(C)(=O)=O)Cc2cc(F)cc(F)c2-3)ccc2c1NCCO2 [Compound 286] | – | EC50 [1]: 3.2 nM
2 | Cc1ccc(-c2c(C)c3c(c(C)c2[C@H](OC(C)(C)C)C(=O)O)N(S(C)(=O)=O)[C@@H](C)c2ccccc2-3)cc1 [Compound 287] | – | EC50 [1]: 33 nM
3 | Cc1ccc(-c2c(C)c3c(c(C)c2[C@H](OC(C)(C)C)C(=O)O)N(S(C)(=O)=O)CC2CCCCN32)cc1 (stereo partly drawn) [Compound 288] | – | EC50 (Table A-5, four days): 37 nM
4 | CC(=O)N1Cc2ccccc2-c2c(C)c(-c3ccc(C)cc3)c([C@H](OC(C)(C)C)C(=O)O)c(C)c21 [Compound 290] | – | EC50 [1]: 53 nM
5 | COc1ccc2c(c1F)CN(S(C)(=O)=O)c1c(C)c([C@H](OC(C)(C)C)C(=O)O)c(-c3ccc4c(c3C)NCCO4)c(C)c1-2 [Compound 293] | – | EC50 [1]: 3.3 nM
6 | Cc1c(-c2ccc3c(c2Cl)NCCO3)c([C@H](OC(C)(C)C)C(=O)O)c(C)c2c1-c1c(F)ccc(F)c1CN2S(C)(=O)=O [Compound 296] | – | EC50 [1]: < 7.8 nM
7 | Cc1ccc(-c2c(C)c3c(c(C)c2[C@H](OC(C)(C)C)C(=O)O)S(=O)(=O)Cc2cc(F)cc(F)c2-3)cc1 [Compound 298] | 30 nM | –
8 | Cc1c(-c2cc(F)c3c(c2F)CCCO3)c([C@H](OC(C)(C)C)C(=O)O)c(C)c2c1-c1c(F)ccc(F)c1CN2S(C)(=O)=O [Compound 299] | 26 nM | –
9 | Cc1c(-c2c(C)c3c(c(C)c2[C@H](OC(C)(C)C)C(=O)O)N(S(C)(=O)=O)Cc2ccccc2-3)ccc2c1NCCO2 [Compound 300] | < 7.8 nM | –
10 | Cc1ccc(-c2c(C)c3c(c(C)c2[C@H](OC(C)(C)C)C(=O)O)N(S(C)(=O)=O)Cc2cc(Cl)ccc2-3)cc1 [Compound 301] | 4.9 nM | –
11 | Cc1ccc(-c2c(C)c3c(c(C)c2[C@H](OC(C)(C)C)C(=O)O)N(S(C)(=O)=O)Cc2cccc(Cl)c2-3)cc1 [Compound 302] | 28.1 nM | –
12 | Cc1ccc(-c2c(C)c3c(c(C)c2[C@H](OC(C)(C)C)C(=O)O)N(S(C)(=O)=O)Cc2c(F)ccc(F)c2-3)c(F)c1 [Compound 304] | 5.2 nM | –
13 | Cc1ccc(-c2c(C)c3c(c(C)c2[C@H](OC(C)(C)C)C(=O)O)N(S(C)(=O)=O)Cc2oc(C)nc2-3)cc1 [Compound 305] | 28 nM | –
14 | COc1nc2c(s1)CN(S(C)(=O)=O)c1c(C)c([C@H](OC(C)(C)C)C(=O)O)c(-c3ccc(C)cc3)c(C)c1-2 [Compound 307] | 51 nM | –
15 | Cc1c(-c2c(C)c3c(c(C)c2[C@H](OC(C)(C)C)C(=O)O)N(S(C)(=O)=O)Cc2cc(F)cnc2-3)ccc2c1NCCO2 [Compound 310] | 25 nM | –
16 | Cc1c(-c2ccc3cccnc3c2C)c([C@H](OC(C)(C)C)C(=O)O)c(C)c2c1-c1c(F)ccc(F)c1CN2S(C)(=O)=O [Compound 311] | 28 nM | –
17 | Cc1c(-c2c(C)c3c(c(C)c2[C@H](OC(C)(C)C)C(=O)O)N(S(C)(=O)=O)Cc2ccc(F)c(F)c2-3)ccc2c1NCCO2 [Compound 314] | 5.3 nM | –
18 | Cc1ccc(-c2c(C)c3c(c(C)c2[C@H](OC(C)(C)C)C(=O)O)N(S(C)(=O)=O)Cc2cc(C)cnc2-3)cc1 [Compound 315] | < 7.8 nM | –
19 | Cc1cc(Cl)ccc1-c1c(C)c2c(c(C)c1[C@H](OC(C)(C)C)C(=O)O)N(S(C)(=O)=O)Cc1c(F)ccc(F)c1-2 [Compound 317] | – | EC50 [3]: 70 nM
20 | Cc1cc(Cl)ccc1-c1c(C)c2c(c(C)c1[C@H](OC(C)(C)C)C(=O)O)N(S(C)(=O)=O)Cc1c(F)ccc(F)c1-2 [Compound 318] | – | EC50 [3]: 17 nM
21 | Cc1ccc(-c2c(C)c3c(c(C)c2[C@H](OC(C)(C)C)C(=O)O)N(S(C)(=O)=O)Cc2c(C(F)(F)F)ccnc2-3)cc1 [Compound 319] | 8.4 nM | –
22 | Cc1c(-c2c(C)c3c(c(C)c2[C@H](OC(C)(C)C)C(=O)O)N(S(C)(=O)=O)Cc2cc(F)cnc2-3)ccc2c1CCCO2 [Compound 320] | 3.1 nM | –
23 | Cc1c(-c2ccc3c(c2C)N(C)CCO3)c([C@H](OC(C)(C)C)C(=O)O)c(C)c2c1-c1c(F)ccc(F)c1CN2S(C)(=O)=O [Compound 321] | 15 nM | –
24 | COc1cc2c(cn1)-c1c(C)c(-c3ccc4c(c3C)NCCO4)c([C@H](OC(C)(C)C)C(=O)O)c(C)c1N(S(C)(=O)=O)C2 [Compound 322] | 11 nM | –
